Among the data in a melting point compilation (Tetko et al.) are melting point values, retold here.

By melting point is commonly meant the temperature, or range, at which the solid turns liquid.

With `O=[N+]([O-])c1ccc(CS(=O)(=O)Cl)cc1`, the melting point lay within 91 to 92 °C.
In the case of `BrCCOc1cccc2c1OCCO2` it was 85 to 86 °C.
The result for `Cc1cc(Cl)cc(C=O)c1O` reads 67 to 68 °C; that for `BrCC(Br)(Br)Br`, 0 °C.
The result for `O=C(O)c1nc2ccccc2nc1O` reads 267 to 268 °C; that for `C=C1C(C)C2C(Cc3ccccc3)NC(=O)C23OC(=O)CCC(O)CCCC(C)CC=CC3C1O` (centres undefined), 203 to 205 °C.
Turning to `O=C1CC2(CCCC2)CC(=O)N1`, the melting point lay within 153 to 155 °C.
The result for `NCCCCCC(=O)O` reads 211 °C; that for `CC(=O)N1C(=O)[C@@](O)([C@H]2c3ccccc3O[C@@H]2Cl)c2ccccc21`, 133 °C.
In the case of `FC(F)(F)c1cc(-n2cccc2)cc(C(F)(F)F)c1` it was 43 to 45 °C; in that of `Oc1ccc(Cl)cc1Sc1cc(Cl)ccc1O`, 174 °C; in that of `Nc1nsc(-c2ccc(Cl)cc2)n1`, 201 to 202 °C.
Consider `NC(=S)NC1CCCCC1`, for which the melting point worked out at 162 °C.
`O=C(O)c1cccc(OOCl)c1`: the melting point turned out to be 92 °C.
The result for `CCCCCCCCOC(=O)CCCCCC` reads -22.5 °C; that for `O=C(O)c1ccc(C#Cc2ccccc2)o1`, 212 to 213 °C; that for `CCOC(=O)CN(CCCN(CC(=O)OCC)S(=O)(=O)c1ccc(C)cc1)S(=O)(=O)c1ccc(C)cc1`, 130 °C.
The result for `CC(C)(C)C(O)C(Cc1ccc(Cl)cc1)n1cncn1` (centres undefined) reads 166 °C.
The result for `CN1c2ccccc2Sc2ccccc21` reads 102 °C; that for `Clc1ccc2c(c1)Oc1ccc(Cl)cc1O2`, 202 °C; that for `COC1(OC)C2C=C3OC(=O)C1C3(C)O2` (centres undefined), 199 to 201 °C.
`O=C(Oc1c(F)c(F)c(F)c(F)c1F)c1ccc(-c2cccs2)nc1`: the melting point is 140 to 142 °C.
The result for `Cc1ccc(F)cc1NC(N)=S` reads 120 to 123 °C; that for `CCCCCCCCCCOC(=O)CCCCCCCCC`, 9.7 °C; that for `c1coc(P(c2ccco2)c2ccco2)c1`, 62 °C.
The result for `CCSc1nnc(NC(=O)C(F)(F)C(F)(F)C(F)(F)C(F)(F)C(F)(F)C(F)(F)C(F)(F)C(F)(F)F)s1` reads 131 °C.
As for `Cc1ccccc1Oc1cccnn1`, the melting point came to 78 °C.
Molecule `CC1(C)C(=O)OC2=C(CCCC2)C1c1ccccc1` (centres undefined) gave a melting point of 95 °C.
In the case of `Clc1c2ccccc2cc2ccccc12` it was 104 °C; in that of `CC(=O)OCC1=CC2OC(=O)C3=COC(OC4OC(CO)C(O)C(O)C4O)C1C32` (centres undefined), 132 °C; in that of `Cc1ccc(S(=O)(=O)Oc2c(C(=O)c3ccc(Cl)cc3Cl)c(C)nn2C)cc1`, 118 °C.
Regarding `Nc1nn2c(C(F)(F)F)cc(=O)[nH]c2c1/N=N/c1c(Br)cc(Br)cc1Br`, the melting point was 92 to 94 °C.
The result for `O=C(/C=C/c1ccc(Cl)cc1Cl)c1ccccc1` reads 72.3 °C.
In the case of `C1CCCCCCCCCCCCCCC1` it was 61 °C; in that of `c1ccc(-c2cc3c(ccc4nonc43)nn2)cc1`, 201 to 203 °C.
In the case of `COc1cc(C(=O)O)ccc1F` it was 207 °C; in that of `O=CC=Cn1ccnc1`, 118 °C.
`C=CCc1cc(OC)c2c(c1OC)OCO2` yielded a melting point of 29.5 °C.
The result for `O=C(O)C=CC=Cc1ccc2c(c1)OCO2` reads 215 °C; that for `CCOc1ccc(C(C)O)cc1` (centres undefined), 47 °C; that for `C=C(C)CC1(CC)C(=O)NC(=S)NC1=O`, 160 °C.
In the case of `CCCCCCCCCOc1ccc(N)cc1` it was 39 °C; in that of `CCOC(=O)c1cc(-c2ccccc2)on1`, 48 to 49.5 °C; in that of `Cc1ccc(C(=O)C=CC(=O)O)cc1`, 139 °C.
